According to patent publication US20230382889A1 (Volastra Therapeutics, Inc., priority 2022, published 2023):
Read-outs that look alike come from different tables or passages of the source.

Experiments:
[1] = tested on: HCC15 cells; experiment: Cell viability of KIF18a-sensitive cell lines, HCC15 (Cell Titre-Glo, 7 days); assay type: cell-based; details: HCC15, 7 days, read-out: HCC15 IC50
Protocol: (§1) Cell lines were seeded as follows 24 hours before compound treatment: HCC15 (Korean Cell Line Bank) 600 cell/well, 95 μL of RPMI-1640 media supplemented with 100 units/mL penicillin, 100 units/mL streptomycin and 10% FBS; NIH:OVCAR-3 (ATCC), 1000 cell/well, 95 μL of RPMI-1640 media supplemented with 100 units/mL penicillin, 100 units/mL streptomycin, 0.01 mg/mL bovine insulin, and 20% FBS; JIMT-1 (Addexbio) 1000 cell/well, 95 μL of DMEM media supplemented with 100 units/mL penicillin, 100 units/mL streptomycin, and 10% FBS.
(§2) Test compounds were added to cells in a 20× dilution scheme by adding 5 μL of serially diluted compound to the plate, and the treated cells were incubated for an additional 7 days in a 37° C., 5% CO2 incubator. DMSO was used as the negative control (0% effect), and wells omitting cells were used as the positive control (100% effect). The cells were incubated for seven days, and cell viability determined via the Promega Cell Titre-Glo® Assay kit. Luminescence units were converted to ATP concentrations via an ATP standard curve (10 point, 2-fold dilution from 5 uM). % Inhibition was calculated for each well as: ([max−min]−[test−min])/[max−min]. IC50 values were calculated from concentration vs. % Inhibition data via a four-parameter variable slope model.

[2] = tested on: JIMT-1 cells; experiment: Cell viability of KIF18a-sensitive cell lines, JIMT-1 (Cell Titre-Glo, 7 days); assay type: cell-based; details: JIMT-1, 7 days, read-out: JIMT-1 IC50
Protocol: as §1, §2

[3] = tested on: NIH:OVCAR-3 cells; experiment: Cell viability of KIF18a-sensitive cell lines, NIH:OVCAR-3 (Cell Titre-Glo, 7 days); assay type: cell-based; details: NIH:OVCAR3, 7 days, read-out: NIH:OVCAR3 IC50
Protocol: as §1, §2

[4] = target: hKIF18A (1-374) (Homo sapiens (Human), UniProt Q8NI77); experiment: Inhibition of KIF18A microtubule-dependent ATPase activity (ADP-Glo); assay type: biochemical; details: 4 nM hKIF18A (1-374)
Chain of hKIF18A (1-374) (Q8NI77 1-374): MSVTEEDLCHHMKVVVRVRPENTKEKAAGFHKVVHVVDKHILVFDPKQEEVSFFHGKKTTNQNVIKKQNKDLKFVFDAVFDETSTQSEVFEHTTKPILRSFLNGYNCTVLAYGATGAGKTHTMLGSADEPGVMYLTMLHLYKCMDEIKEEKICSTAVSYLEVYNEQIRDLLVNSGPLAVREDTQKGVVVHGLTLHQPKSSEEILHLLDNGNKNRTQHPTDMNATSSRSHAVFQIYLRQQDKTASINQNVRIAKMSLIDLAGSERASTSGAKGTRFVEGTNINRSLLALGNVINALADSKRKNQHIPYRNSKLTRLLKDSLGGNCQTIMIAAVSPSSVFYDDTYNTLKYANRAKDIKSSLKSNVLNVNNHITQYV
Summary of the method: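 Reaction was started with pre-formed microtubules and ATP (0.2 mg/mL and 2.0 mM in the added mix) and run 60 min at 28 °C. ADP was read by ADP-Glo luminescence, and IC50 came from a four-parameter fit of % inhibition.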

IC50 ([1]; 168 h) [nM] | IC50 ([3]; Homo sapiens, OVCAR-3, 168 h) [nM] | IC50 [4] [nM] | IC50 [1] [nM] | IC50 [3] [nM] | SMILES | IC50 ([2]; Homo sapiens, 168 h) [nM] | IC50 [2] [nM]
18 | 25 | 32 |  |  | CCS(=O)(=O)Nc1ccc(-n2cc(-c3cc(C)nc(N4CCC(F)(F)CC4)n3)nn2)c(N2CCC3(CC2)CC3)c1 [Compound 106, N-(4-(4-(2-(4,4-difluoropiperidin-1-yl)-6-methylpyrimidin-4-yl)-1H-1,2,3-triazol-1-yl)-3-(6-azaspiro[2.5]octan-6-yl)phenyl)ethanesulfonamide] | 24 | 
3.3 | 4.4 | 15 |  |  | CCS(=O)(=O)Nc1ccc(-c2cn(-c3cccc(S(=O)(=O)NC(C)(C)C)c3)nn2)c(N2CCC3(CC2)CC3)c1 [Compound 110, N-(tert-butyl)-3-(4-(4-(ethylsulfonamido)-2-(6-azaspiro[2.5]octan-6-yl)phenyl)-1H-1,2,3-triazol-1-yl)benzenesulfonamide] | 6.8 | 
3.6 | 3.9 | 14 |  |  | CCS(=O)(=O)Nc1ccc(-n2cc(-c3cccc(S(=O)(=O)NC(C)(C)C)c3)nn2)c(N2CCC3(CC2)CC3)c1 [Compound 116, N-(tert-butyl)-3-(1-(4-(ethylsulfonamido)-2-(6-azaspiro[2.5]octan-6-yl)phenyl)-1H-1,2,3-triazol-4-yl)benzenesulfonamide] | 6.3 | 
16 | 27 | 17 |  |  | Cc1cc(-c2cn(-c3ccc(NS(=O)(=O)CCO)cc3N3CCC4(CC3)CC4)nn2)nc(N2CCCCC2)n1 [Compound 101, 2-hydroxy-N-(4-(4-(6-methyl-2-(piperidin-1-yl)pyrimidin-4-yl)-1H-1,2,3-triazol-1-yl)-3-(6-azaspiro[2.5]octan-6-yl)phenyl)ethane-1-sulfonamide] | 27 | 
3 | 4.5 | 7.2 |  |  | CS(=O)(=O)Nc1ccc(-n2cc(-c3cccc(S(=O)(=O)N4CC(F)(F)C4)c3)nn2)c(N2CCC3(CC2)CC3)c1 [Compound 13, N-(4-(4-(3-((3,3-difluoroazetidin-1-yl)sulfonyl)phenyl)-1H-1,2,3-triazol-1-yl)-3-(6-azaspiro[2.5]octan-6-yl)phenyl)methanesulfonamide] | 4.7 | 
37 | 72 | 36 |  |  | Cc1cc(-n2cc(-c3ccc(NS(=O)(=O)CCO)cc3N3CCC4(CC3)CC4)nn2)nc(N2CC3C(C2)C3(F)F)n1 (stereo not shown) [Compound 97, N-(4-(1-(2-(6,6-difluoro-3-azabicyclo[3.1.0]hexan-3-yl)-6-methylpyrimidin-4-yl)-1H-1,2,3-triazol-4-yl)-3-(6-azaspiro[2.5]octan-6-yl)phenyl)-2-hydroxyethane-1-sulfonamide] | 110 | 
10 | 14 | 11 |  |  | Cc1cc(-c2cn(-c3ccc(NS(=O)(=O)CCO)cc3N3CCC4(CC3)CC4)nn2)nc(N2CC3C(C2)C3(F)F)n1 (stereo not shown) [Compound 73, N-(4-(4-(2-(6,6-difluoro-3-azabicyclo[3.1.0]hexan-3-yl)-6-methylpyrimidin-4-yl)-1H-1,2,3-triazol-1-yl)-3-(6-azaspiro[2.5]octan-6-yl)phenyl)-2-hydroxyethane-1-sulfonamide] | 42 | 
17 | 28 | 4.4 |  |  | O=S(=O)(CCO)Nc1ccc(-c2cn(-c3cncc(N4CCC(F)(F)CC4)n3)nn2)c(N2CCC3(CC2)CC3)c1 [Compound 96, N-(4-(1-(6-(4,4-difluoropiperidin-1-yl)pyrazin-2-yl)-1H-1,2,3-triazol-4-yl)-3-(6-azaspiro[2.5]octan-6-yl)phenyl)-2-hydroxyethane-1-sulfonamide] | 44 | 
25 | 21 | 18 |  |  | CS(=O)(=O)Nc1ccc(-c2cn(-c3cccc(N4CCC(F)(F)CC4)n3)nn2)c(N2CCC3(CC2)CC3)c1 [Compound 29, N-(4-(1-(6-(4,4-difluoropiperidin-1-yl)pyridin-2-yl)-1H-1,2,3-triazol-4-yl)-3-(6-azaspiro[2.5]octan-6-yl)phenyl)methanesulfonamide] | 23 | 
43 | 49 | 27 |  |  | Cc1cc(-n2cc(-c3ccc(NS(=O)(=O)CCO)cc3N3CCC4(CC3)CC4)nn2)nc(N2CCC(F)(F)CC2)n1 [Compound 87, N-(4-(1-(2-(4,4-difluoropiperidin-1-yl)-6-methylpyrimidin-4-yl)-1H-1,2,3-triazol-4-yl)-3-(6-azaspiro[2.5]octan-6-yl)phenyl)-2-hydroxyethane-1-sulfonamide] | 90 | 
120 | 120 | 25 |  |  | CS(=O)(=O)Nc1ccc(-c2cn(-c3cccc(N4CCC(F)(F)CC4)c3)nn2)c(N2CCC3(CC2)CC3)c1 [Compound 64, N-(4-(1-(3-(4,4-difluoropiperidin-1-yl)phenyl)-1H-1,2,3-triazol-4-yl)-3-(6-azaspiro[2.5]octan-6-yl)phenyl)methanesulfonamide] | 120 | 
34 | 51 | 21 |  |  | Cc1cc(-c2cn(-c3ccc(NS(=O)(=O)CCO)cc3N3CCC(C)CC3)nn2)nc(N2CCC(F)(F)CC2)n1 [Compound 89, N-(4-(4-(2-(4,4-difluoropiperidin-1-yl)-6-methylpyrimidin-4-yl)-1H-1,2,3-triazol-1-yl)-3-(4-methylpiperidin-1-yl)phenyl)-2-hydroxyethane-1-sulfonamide] | 48 | 
15 | 16 | 8 |  |  | CCS(=O)(=O)Nc1ccc(-n2cc(-c3cccc(N4CC(F)(F)C4)n3)nn2)c(N2CCC3(CC2)CC3)c1 [Compound 61, N-(4-(4-(6-(3,3-difluoroazetidin-1-yl)pyridin-2-yl)-1H-1,2,3-triazol-1-yl)-3-(6-azaspiro[2.5]octan-6-yl)phenyl)ethanesulfonamide] | 15 | 
12 | 19 | 5 |  |  | O=S(=O)(CCO)Nc1ccc(-n2cc(-c3ccn(C4CCC(F)(F)CC4)n3)nn2)c(N2CCC3(CCC3)CC2)c1 [Compound 130, N-(4-(4-(1-(4,4-difluorocyclohexyl)-1H-pyrazol-3-yl)-1H-1,2,3-triazol-1-yl)-3-(7-azaspiro[3.5]nonan-7-yl)phenyl)-2-hydroxyethane-1-sulfonamide] | 29 | 
45 | 80 | 11 |  |  | O=S(=O)(CCO)Nc1ccc(-n2cc(-c3cccc(OC4CCCC4)n3)nn2)c(N2CCC3(CC2)CC3)c1 [Compound 100, N-(4-(4-(6-(cyclopentyloxy)pyridin-2-yl)-1H-1,2,3-triazol-1-yl)-3-(6-azaspiro[2.5]octan-6-yl)phenyl)-2-hydroxyethane-1-sulfonamide] | 60 | 
13 | 13 | 18 |  |  | O=S(=O)(Nc1ccc(-n2cc(-c3cccc(N4CCC(F)(F)CC4)n3)nn2)c(N2CCC3(CC2)CC3)c1)C1(CO)CC1 [Compound 62, N-(4-(4-(6-(4,4-difluoropiperidin-1-yl)pyridin-2-yl)-1H-1,2,3-triazol-1-yl)-3-(6-azaspiro[2.5]octan-6-yl)phenyl)-1-(hydroxymethyl)cyclopropane-1-sulfonamide] | 9.5 | 
37 | 51 | 38 |  |  | Cc1cc(N2CCC(F)(F)CC2)nc(-n2cc(-c3ccc(NS(=O)(=O)CCO)cc3N3CCC4(CC3)CC4)nn2)c1 [Compound 95, N-(4-(1-(6-(4,4-difluoropiperidin-1-yl)-4-methylpyridin-2-yl)-1H-1,2,3-triazol-4-yl)-3-(6-azaspiro[2.5]octan-6-yl)phenyl)-2-hydroxyethane-1-sulfonamide] | 68 | 
5.4 | 8.3 | 15 |  |  | O=S(=O)(CCO)Nc1ccc(-n2cc(-c3ccc(F)c(N4CCC(F)(F)CC4)n3)nn2)c(N2CCC3(CC2)CC3)c1 [Compound 79, N-(4-(4-(6-(4,4-difluoropiperidin-1-yl)-5-fluoropyridin-2-yl)-1H-1,2,3-triazol-1-yl)-3-(6-azaspiro[2.5]octan-6-yl)phenyl)-2-hydroxyethane-1-sulfonamide] | 7.8 | 
 |  | 5.2 | 7.4 | 14 | O=S(=O)(CCO)Nc1ccc(-n2cc(-c3cccc(C(O)C4CCCC4)n3)nn2)c(N2CCC3(CC2)CC3)c1 (single isomer, unassigned) [Compound 90a] |  | 11
